Data on 19 compounds can be found in US11414429B2, “Compound or pharmaceutically acceptable salt thereof” (RIKEN, priority 2016, dated 2022).

pIC50: −log10 of the molar value. Read-outs that look alike come from different tables or passages of the source.

Assay [1] concerns the target T1, tankyrase 2 (TNKS 2) (Homo sapiens, UniProt Q9H2K2).
T1 construct: 613-1, 116aa; made in house; host or cells: cell-free protein synthesis system
Briefly: Tankyrase inhibitory activity test (ELISA, self-polyADP ribosylation), tankyrase 2. It is filed as biochemical. In short, it runs like this:
(§1)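 IC50 was fitted to residual self-polyADP-ribosylation activity, detected by HRP-streptavidin chemiluminescence. Plate-bound Flag fusions (TNKS1 1,024-1,327aa SAM+PARP; TNKS2 613-1,116aa ANK5+SAM+PARP, cell-free synthesized) saw compound for 10 min at room temperature in 50 mM Tris-HCl pH 8.0, 4 mM MgCl2, 0.2 mM DTT. Reaction with 225 μM NAD/25 μM 6-biotin-17-NAD solution ran 45 min at 30 °C.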
For orientation: In an ELISA, binding on a coated surface is turned into a signal by an enzyme label.

For assay [2], the system named is human colorectal cancer cell line, COLO-320DM. Briefly: Cell proliferation inhibitory activity test (Celltiter-Glo Luminescent Cell Viability Assay). It is filed as cell-based. The note with it: COLO-320DM cells, 96 hours. In short, it runs like this:
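GI50 is taken as the concentration halving cell growth versus 1% DMSO control, measured by ATP luminescence. Compound exposure lasted 96 h at 37° C. under 5% CO2, after overnight seeding in RPMI-1640 with 10% FBS and 2 mM glutamine.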
A general note: Cellular ATP, detected with luciferase, serves as a proxy for viable cell number.

Assay [3] deals with T2, tankyrase 1 (TNKS 1) (Homo sapiens, UniProt O95271).
T2 construct: 1,024-1,327aa; made in house; host or cells: cell-free protein synthesis system
Briefly: Tankyrase inhibitory activity test (ELISA, self-polyADP ribosylation), tankyrase 1. Type of assay: biochemical. The procedure, abridged: as §1

The mark [4] stands for this setting: ELISA, self-polyADP ribosylation, class symbols, read-out: TNKS2 (inhibitory activity against tankyrase 2, IC50 value).
The mark [5] stands for this setting: class symbols, read-out: COLO-320 DM (cell proliferation inhibitory activity, GI50 value).
Setting [6] is: ELISA, self-polyADP ribosylation, class symbols, read-out: TNKS1 (inhibitory activity against tankyrase 1, IC50 value).
Setting [7] is: tankyrase 2, ELISA, self-polyADP ribosylation, read-out: TNKS2 inhibitory activity (IC50 class).
The mark [8] stands for this setting: read-out: COLO-320 DM cell proliferation inhibitory activity (GI50 class).
[9] abbreviates: tankyrase 1, ELISA, self-polyADP ribosylation, read-out: TNKS1 inhibitory activity (IC50 class).

T2 sequence (O95271 1024-1327): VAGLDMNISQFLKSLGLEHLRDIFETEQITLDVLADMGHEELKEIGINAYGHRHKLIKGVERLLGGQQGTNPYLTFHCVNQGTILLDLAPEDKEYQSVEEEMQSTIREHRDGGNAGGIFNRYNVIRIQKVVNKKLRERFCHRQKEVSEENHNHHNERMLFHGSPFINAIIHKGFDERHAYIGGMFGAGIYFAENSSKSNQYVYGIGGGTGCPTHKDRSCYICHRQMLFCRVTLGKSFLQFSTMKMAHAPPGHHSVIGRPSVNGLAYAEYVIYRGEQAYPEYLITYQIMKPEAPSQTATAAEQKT
T1 sequence (Q9H2K2 613-1166): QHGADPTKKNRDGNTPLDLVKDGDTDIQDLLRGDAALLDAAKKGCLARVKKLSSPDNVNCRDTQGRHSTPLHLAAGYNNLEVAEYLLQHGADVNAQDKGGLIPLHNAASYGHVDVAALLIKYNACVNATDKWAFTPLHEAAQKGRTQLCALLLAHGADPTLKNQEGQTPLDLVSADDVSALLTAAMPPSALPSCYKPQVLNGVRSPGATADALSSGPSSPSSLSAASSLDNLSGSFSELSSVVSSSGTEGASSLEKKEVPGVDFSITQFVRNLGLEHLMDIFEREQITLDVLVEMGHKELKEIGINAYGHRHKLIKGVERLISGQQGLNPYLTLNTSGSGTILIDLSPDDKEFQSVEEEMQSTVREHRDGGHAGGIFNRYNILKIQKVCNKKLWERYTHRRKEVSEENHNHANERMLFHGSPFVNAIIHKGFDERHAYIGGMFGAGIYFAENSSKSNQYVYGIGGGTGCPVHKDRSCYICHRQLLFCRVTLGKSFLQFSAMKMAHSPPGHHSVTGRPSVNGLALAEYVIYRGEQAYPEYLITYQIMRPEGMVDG

As a reminder, the pIC50 is the negative decadic logarithm of the IC50, by convention in mol/L. For the compound `COc1ccc(Cl)c2c1N(CCC(=O)N1CCn3c(C(F)(F)F)cnc3C1)C(=O)C21CCN(c2nc3c(c(=O)[nH]2)CCCN3C)CC1` [Example 445, 4-chloro-1′-(4-hy-droxy-8-methyl-6,7-dihdyro-5H-py-rido[2,3-d]pyrimi-din-2-yl)-7-meth-oxy-1-[3-oxo-3-[3-(trifluoromethyl)-6,8-dihydro-5H-imidazo[1,2-a]py-razin-7-yl]propyl] spiro[indole-3,4′-piperidine]-2-one], the pIC50 in assay [1] (setting [4]) and in assay [3] (setting [6]) was over 7.70 each time. Further, the GI50 in assay [2] (setting [5]) was 100 to 600 nM.
Consider `CN1CCCc2c1nc(N1CCC3(CC1)C(=O)N(C)c1cc(OC4CCOCC4)cc(F)c13)[nH]c2=O` [Example 389, 4-fluoro-1-methyl-1′-(8-methyl-4-oxo-3,4,5,6,7,8-hexahydropyrido [2,3-d]pyrimidin-2-yl)-6-[(tetrahydro-2H-pyran-4-yl)oxy]spiro [indoline-3,4′-piperidin]-2-one], for which the pIC50 in assay [1] (setting [7]) and in assay [3] (setting [9]) was over 7.70 throughout. In addition, in assay [2] (setting [8]), the GI50 is under 100 nM.
For the compound `CN1CCCc2c1nc(N1CCC3(CC1)C(=O)N(CC(F)(F)F)c1cc(OCCO)cc(F)c13)[nH]c2=O` [Example 399, 4-fluoro-6-(2-hydroxy-ethoxy)-1′-(8-methyl-4-oxo-3,4,5,6,7,8-hexahydro-pyrido [2,3-d]pyri-midin-2-yl)-1-(2,2,2-trifluoroethyl) spiro [indoline-3,4′-piperidin]-2(1H)-one], the pIC50 in assay [1] (setting [4]) and in assay [3] (setting [6]) was over 7.70 throughout. Besides, the GI50 in assay [2] (setting [5]) lay in the range of 100 to 600 nM.
Turning to `CN1CCCc2c1nc(N1CCC3(CC1)C(=O)N(CCO)c1cc(F)cc(F)c13)[nH]c2=O` [Example 340, 4,6-difluoro-1-(2-hydroxyethyl)-1′-(8-methyl-4-oxo-3,4,5,6,7,8-hexahydro-pyrido[2,3-d]pyrimidin-2-yl)spiro [indoline-3,4′-piperidin]-2-one], the negative logarithm of the IC50 (pIC50) in assay [1] (setting [7]) and in assay [3] (setting [9]) was over 7.70 in each case. Besides, the GI50 in assay [2] (setting [8]) was 100 to 600 nM.
Regarding `CN1CCCc2c1nc(N1CCC3(CC1)C(=O)N(CCO)c1cc(OCCN4CCOCC4)cc(F)c13)[nH]c2=O` [Example 386, 4-fluoro-1-(2-hydroxy-ethyl)-1′-(8-methyl-4-oxo-3,4,5,6,7,8-hexahydropyrido [2,3-d]pyrimidin-2-yl)-6-(2-morpholino-ethoxy)spiro [indoline-3,4′-piperidin]-2-one], the pIC50 in assay [1] (setting [7]) and in assay [3] (setting [9]) was over 7.70 in each case. For the same compound, in assay [2] (setting [8]), the GI50 was 600 to 1000 nM.
As for `CN1CCCc2c1nc(N1CCC3(CC1)C(=O)N(C)c1cc(N4CCS(=O)(=O)CC4)cc(F)c13)[nH]c2=O` [Example 455, 6-(1,1-dioxdothio-morpholino)-4-fluoro-1-methyl-1′-(8-methyl-4-oxo-3,4,5,6,7,8-hexa-hydropyrido[2,3-d]pyrimidin-2-yl)spiro [indole-3,4′-piperi-dine]-2-one], the pIC50 in assay [1] (setting [4]) and in assay [3] (setting [6]) was over 7.70 throughout. The GI50 in assay [2] (setting [5]) fell in the range of 100 to 600 nM.
On to `Cn1ccc2c(=O)[nH]c(N3CCC4(CC3)CN(Cc3cccnc3)c3cc(F)cc(F)c34)nc21` [Example 347, 2-[4,6-difluoro-1-(pyridin-3-ylmethyl)spiro [indoline-3,4′-piperidine]-1′-yl]-7-methyl-3,7-dihydro-4H-pyrrolo [2,3-d]pyrimidin-4-one], for which the negative-log IC50 (pIC50) in assay [1] (setting [7]) and in assay [3] (setting [9]) was 6.70 to 7.70 each time. For the same compound, the GI50 in assay [2] (setting [8]) lay in the range of 600 to 1000 nM.
Turning to `COc1cccc(CN2CC3(CCN(c4nc5c(c(=O)[nH]4)CCCC5)CC3)c3ccccc32)c1` [Example 99, 2-[1-(3-methoxy-benzyl)spiro[indoline-3,4′-piperidin]-1′-yl]-5,6,7,8-tetrahydroquinazolin-4(3H)-one], the pIC50 in assay [1] (setting [7]) is over 7.70; in assay [3] (setting [9]), 6.70 to 7.70. Moreover, in assay [2] (setting [8]), the GI50 was 600 to 1000 nM.
With `C[C@@H]1CN(c2cc(F)c3c(c2)N(CC(F)(F)F)C(=O)C32CCN(c3nc4c(c(=O)[nH]3)CCCN4C)CC2)C[C@H](C)N1` [Example 417, 6-(cis-3,5-dimethyl-piperazin-1-yl)-4-fluoro-1′-(8-methyl-4-oxo-3,4,5,6,7,8-hexahydropyrido[2,3-d]pyrimidin-2-yl)-1-(2,2,2-trifluoroethyl) spiro[indoline-3,4′-piperidin]-2-one], the pIC50 in assay [1] (setting [4]) and in assay [3] (setting [6]) was over 7.70 in each case. Also, the GI50 in assay [2] (setting [5]) lay within 600 to 1000 nM.
For the compound `CN1CCC(Oc2ccc(F)c3c2N(C)C(=O)C32CCN(c3nc4c(c(=O)[nH]3)CCCN4C)CC2)CC1` [Example 420, 4-fluoro-1′-(4-hydroxy-8-methyl-6,7-dihydro-5H-pyrido[2,3-d]pyrimidin-2-yl)-1-methyl-7-(1-methylpiperidin-4-yl)oxyspiro[indole-3,4′-piperidin]-2-one], the negative logarithm of the IC50 (pIC50) in assay [1] (setting [4]) and in assay [3] (setting [6]) was over 7.70 throughout. Also, the GI50 in assay [2] (setting [5]) lay within 100 to 600 nM.
Consider `CN1CCCc2c1nc(N1CCC3(CC1)C(=O)N(C)c1cc(-c4nc(C(=O)O)co4)cc(Cl)c13)[nH]c2=O` [Example 331, 2-{4-chloro-1-methyl-1′-(8-methyl-4-oxo-3,4,5,6,7,8-hexahydro-pyrido[2,3-d]pyrimidin-2-yl)-2-oxospiro [indoline-3,4′-piperidin]-6-yl]oxazole-4-carboxylic acid], for which the negative logarithm of the IC50 (pIC50) in assay [1] (setting [7]) and in assay [3] (setting [9]) was over 7.70 in each case. In assay [2] (setting [8]), the GI50 was 600 to 1000 nM.
Turning to `CN(C)CCOc1cc(F)c2c(c1)N(CC(F)(F)F)C(=O)C21CCN(c2nc3c(c(=O)[nH]2)CCCN3C)CC1` [Example 400, 6-[2-(di-methylamino)ethoxy]-4-fluoro-1′-(8-methyl-4-oxo-3,4,5,6,7,8-hexahydro-pyrido [2,3-d]pyrimidin-2-yl)-1-(2,2,2-trifluoroethyl) spiro[indoline-3,4′-piperidin]-2(1H)-one], the pIC50 in assay [1] (setting [4]) and in assay [3] (setting [6]) was 6.70 to 7.70 throughout. The GI50 in assay [2] (setting [5]) was in the range of 100 to 600 nM.
On to `CN1C(=O)C2(CCN(c3nc4c(c(=O)[nH]3)CCCN4)CC2)c2c(F)ccc(OCC(C)(C)O)c21` [Example 426, 4-fluoro-7-(2-hydroxy-2-methylpropoxy)-1′-(4-hydroxy-5,6,7,8-tetrahydropyrido[2,3-d]pyrimidin-2-yl)-1-methyl-spiro[indole-3,4′-piperidin]-2-one], for which the pIC50 in assay [1] (setting [4]) and in assay [3] (setting [6]) was over 7.70 throughout. Besides, in assay [2] (setting [5]), the GI50 is 100 to 600 nM.
With `CN1CCN(c2cc(F)c3c(c2)N(C)C(=O)C32CCN(c3nc4c(c(=O)[nH]3)CCCN4C)CC2)CC1` [Example 387, 4-fluoro-1-methyl-1′-(8-methyl-4-oxo-3,4,5,6,7,8-hexahydropyrido [2,3-d]pyrimidin-2-yl)-6-(4-methylpiperazin-1-yl)spiro [indoline-3,4′-piperidin]-2-one], the pIC50 in assay [1] (setting [7]) and in assay [3] (setting [9]) was over 7.70 in each case. In addition, the GI50 in assay [2] (setting [8]) is under 100 nM.
Take `O=c1[nH]c(N2CCC3(CC2)CN(Cc2cccnc2)c2cccc(Cl)c23)nc2c1CCCC2` [Example 221, 2-[4-chloro-1-(pyridin-3-yl)methylspiro [indoline-3,4′-piperidin] 1′-yl)-5,6,7,8-tetrahydro quinazolin-4(3H)-one]: the negative-log IC50 (pIC50) in assay [1] (setting [7]) and in assay [3] (setting [9]) was over 7.70 throughout. Besides, the GI50 in assay [2] (setting [8]) lay in the range of 100 to 600 nM.
As to `CN(C)CCOc1cc(Cl)c2c(c1)N(C)C(=O)C21CCN(c2nc3c(c(=O)[nH]2)CCCN3C)CC1` [Example 375, 4-chloro-6-[2-(dimethylamino)ethoxy]-1-methyl-1′-(8-methyl-4-oxo-3,4,5,6,7,8-hexahydro-pyrido[2,3-d]pyrimidin-2-yl) spiro[indoline-3,4′-piperidin]-2-one], the pIC50 in assay [1] (setting [7]) and in assay [3] (setting [9]) was over 7.70 in each case. For the same compound, the GI50 in assay [2] (setting [8]) lay within 100 to 600 nM.
For `O=C1N(Cc2cccnc2)c2cccc(Cl)c2C12CCN(c1nc3c(c(=O)[nH]1)CCCC3)CC2` [Example 226, 4-chloro-1′-(4-oxo-3,4,5,6,7,8-hexahydroquinazolin-2-yl)-1-(pyridin-3-ylmethyl) spiro [indoline-3,4′-piperidin]-2-one], the pIC50 in assay [1] (setting [7]) and in assay [3] (setting [9]) was over 7.70 in each case. Moreover, the GI50 in assay [2] (setting [8]) fell in the range of 100 to 600 nM.
`CN1CCCc2c1nc(N1CCC3(CC1)C(=O)N(CC(F)(F)F)c1cc(OCCN4CCCC4)cc(F)c13)[nH]c2=O` [Example 404, 4-fluoro-1′-(8-methyl-4-oxo-3,4,5,6,7,8-hexa hydropyrido [2,3-d]pyrimidin-2-yl)-6-[2-(pyrroli-din-1-yl)ethoxy]-1-(2,2,2-trifluoroethyl) spiro [indoline-3,4′-piperidin]-2(1H)-one]: the pIC50 in assay [1] (setting [4]) and in assay [3] (setting [6]) was 6.70 to 7.70 in each case. In assay [2] (setting [5]), the GI50 was 600 to 1000 nM.
Take `CN1CCCc2c1nc(N1CCC3(CC1)C(=O)N(C)c1cc(OCP(=O)(O)O)cc(F)c13)[nH]c2=O` [Example 442, ({[4-fluoro-1-methyl-1′-(8-methyl-4-oxo-3,4,5,6,7,8-hexahydropyrido[2,3-d]pyrimidin-2-yl)-2-oxospiro[indoline-3,4′-piperidine]-6-yl]oxy}methyl) phosphonic Acid]: the pIC50 in assay [1] and in assay [3] was 6.70 to 7.70 throughout. Moreover, the GI50 in assay [2] (setting [5]) lay in the range of 600 to 1000 nM.
